Results published in the NIST ThermoML archive (doi:10.1021/acs.jced.5b00259).
± gives the expanded uncertainty stated by the source.

Experiment: xn = mol fraction of the nth substance listed
Settings: 100 kPa, Liquid

CC[NH+]=C(N(C)C)N(C)C.O=S(=O)([N-]S(=O)(=O)C(F)(F)F)C(F)(F)F + CCO
Settings | mass density [kg/m3] | viscosity [mPa·s]
293.15 K, x1 = 0.1006 | 1023.01 ± 0.46 | 2.873 ± 0.12
293.15 K, x1 = 0.2004 | 1148.25 ± 0.76 | 5.27 ± 0.21
293.15 K, x1 = 0.3001 | 1225.91 ± 1.4 | 8.21 ± 0.34
293.15 K, x1 = 0.4005 | 1278.7 ± 2.2 | 13.14 ± 0.55
293.15 K, x1 = 0.5018 | 1316.97 ± 3.2 | 19.52 ± 0.82
293.15 K, x1 = 0.6011 | 1345.48 ± 4.5 | 27.48 ± 1.2
293.15 K, x1 = 0.6999 | 1367.71 ± 6 | 36.42 ± 1.6
293.15 K, x1 = 0.802 | 1386.71 ± 7.9 | 47.47 ± 2.1
293.15 K, x1 = 0.892 | 1400.66 ± 9.8 | 59.17 ± 2.2
293.15 K, x1 = 1 | 1414.89 ± 12 | 74.61 ± 5.5
298.15 K, x1 = 0.1006 | 1018.29 ± 0.44 | 2.557 ± 0.1
298.15 K, x1 = 0.2004 | 1143.37 ± 0.75 | 4.596 ± 0.19
298.15 K, x1 = 0.3001 | 1221.07 ± 1.3 | 7.081 ± 0.29
298.15 K, x1 = 0.4005 | 1273.82 ± 2.1 | 11.13 ± 0.46
298.15 K, x1 = 0.5018 | 1312.1 ± 3.2 | 16.32 ± 0.69
298.15 K, x1 = 0.6011 | 1340.6 ± 4.5 | 22.71 ± 0.98
298.15 K, x1 = 0.6999 | 1362.79 ± 6 | 29.85 ± 1.3
298.15 K, x1 = 0.802 | 1381.82 ± 7.9 | 38.34 ± 1.7
298.15 K, x1 = 0.892 | 1395.79 ± 9.8 | 47.22 ± 2.2
298.15 K, x1 = 1 | 1410.03 ± 12 | 58.86 ± 2.3
303.15 K, x1 = 0.1006 | 1013.56 ± 0.43 | 2.289 ± 0.092
303.15 K, x1 = 0.2004 | 1138.51 ± 0.74 | 4.049 ± 0.16
303.15 K, x1 = 0.3001 | 1216.29 ± 1.3 | 6.157 ± 0.25
303.15 K, x1 = 0.4005 | 1268.94 ± 2.1 | 9.534 ± 0.4
303.15 K, x1 = 0.5018 | 1307.24 ± 3.2 | 13.8 ± 0.58
303.15 K, x1 = 0.6011 | 1335.71 ± 4.4 | 19.1 ± 0.82
303.15 K, x1 = 0.6999 | 1357.94 ± 6 | 24.85 ± 1.1
303.15 K, x1 = 0.802 | 1376.95 ± 7.8 | 31.52 ± 1.4
303.15 K, x1 = 0.892 | 1390.94 ± 9.7 | 38.37 ± 1.8
303.15 K, x1 = 1 | 1405.19 ± 12 | 47.27 ± 2.3
308.15 K, x1 = 0.1006 | 1008.82 ± 0.43 | 2.058 ± 0.083
308.15 K, x1 = 0.2004 | 1133.65 ± 0.73 | 3.587 ± 0.15
308.15 K, x1 = 0.3001 | 1211.51 ± 1.3 | 5.391 ± 0.22
308.15 K, x1 = 0.4005 | 1264.09 ± 2.1 | 8.252 ± 0.34
308.15 K, x1 = 0.5018 | 1302.36 ± 3.1 | 11.95 ± 0.51
308.15 K, x1 = 0.6011 | 1330.83 ± 4.4 | 16.25 ± 0.7
308.15 K, x1 = 0.6999 | 1353.07 ± 5.9 | 20.96 ± 0.92
308.15 K, x1 = 0.802 | 1372.11 ± 7.8 | 26.35 ± 1.2
308.15 K, x1 = 0.892 | 1386.12 ± 9.6 | 31.73 ± 1.5
308.15 K, x1 = 1 | 1400.38 ± 12 | 38.71 ± 1.8
313.15 K, x1 = 0.1006 | 1004.07 ± 0.42 | 1.861 ± 0.075
313.15 K, x1 = 0.2004 | 1128.85 ± 0.72 | 3.213 ± 0.13
313.15 K, x1 = 0.3001 | 1206.71 ± 1.3 | 4.757 ± 0.2
313.15 K, x1 = 0.4005 | 1259.25 ± 2.1 | 7.206 ± 0.3
313.15 K, x1 = 0.5018 | 1297.45 ± 3.1 | 10.32 ± 0.44
313.15 K, x1 = 0.6011 | 1325.97 ± 4.4 | 13.99 ± 0.6
313.15 K, x1 = 0.6999 | 1348.22 ± 5.9 | 17.94 ± 0.79
313.15 K, x1 = 0.802 | 1367.28 ± 7.7 | 22.3 ± 1
313.15 K, x1 = 0.892 | 1381.31 ± 9.6 | 26.65 ± 1.2
313.15 K, x1 = 1 | 1395.59 ± 12 | 32.2 ± 1.5
318.15 K, x1 = 0.1006 | 999.26 ± 0.42 | 1.689 ± 0.068
318.15 K, x1 = 0.2004 | 1124.03 ± 0.71 | 2.884 ± 0.12
318.15 K, x1 = 0.3001 | 1201.81 ± 1.3 | 4.227 ± 0.17
318.15 K, x1 = 0.4005 | 1254.43 ± 2.1 | 6.344 ± 0.26
318.15 K, x1 = 0.5018 | 1292.57 ± 3.1 | 8.977 ± 0.38
318.15 K, x1 = 0.6011 | 1321.11 ± 4.3 | 12.15 ± 0.52
318.15 K, x1 = 0.6999 | 1343.4 ± 5.8 | 15.52 ± 0.68
318.15 K, x1 = 0.802 | 1362.45 ± 7.6 | 19.11 ± 0.86
318.15 K, x1 = 0.892 | 1376.52 ± 9.5 | 22.55 ± 1
318.15 K, x1 = 1 | 1390.8 ± 12 | 27.09 ± 1.3
323.15 K, x1 = 0.1006 | 994.44 ± 0.45 | 1.515 ± 0.061
323.15 K, x1 = 0.2004 | 1119.21 ± 0.7 | 2.606 ± 0.11
323.15 K, x1 = 0.3001 | 1197.01 ± 1.3 | 3.78 ± 0.15
323.15 K, x1 = 0.4005 | 1249.62 ± 2 | 5.627 ± 0.23
323.15 K, x1 = 0.5018 | 1287.74 ± 3.1 | 7.837 ± 0.33
323.15 K, x1 = 0.6011 | 1316.28 ± 4.3 | 10.65 ± 0.46
323.15 K, x1 = 0.6999 | 1338.59 ± 5.8 | 13.58 ± 0.6
323.15 K, x1 = 0.802 | 1357.63 ± 7.6 | 16.54 ± 0.75
323.15 K, x1 = 0.892 | 1371.74 ± 9.4 | 19.32 ± 0.9
323.15 K, x1 = 1 | 1386.03 ± 12 | 23.14 ± 1.1
